Test results as given in PubChem BioAssay (NCI).
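The compound was tested at five concentrations on cells cultured in 96-well plates, with a 48-hour exposure period. GI50 = concentration required for 50% inhibition of growth. TGI: total growth inhibition.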

Experiments:
Experiment in all cases: growth of human tumour cells (NCI), 48 h
ACHN renal = system: ACHN renal
HCT-15 colon = system: HCT-15 colon
SR leukemia = system: SR leukemia
NCI-H460 lung = system: NCI-H460 lung
SF-295 CNS = system: SF-295 CNS
SN12C renal = system: SN12C renal
NCI-H522 lung = system: NCI-H522 lung
TK-10 renal = system: TK-10 renal
SK-MEL-5 melanoma = system: SK-MEL-5 melanoma
OVCAR-3 ovarian = system: OVCAR-3 ovarian

Structure (SMILES)	GI50 (ACHN renal)	TGI (ACHN renal)	GI50 (HCT-15 colon)	TGI (HCT-15 colon)	GI50 (SR leukemia)	TGI (SR leukemia)	GI50 (NCI-H460 lung)	TGI (NCI-H460 lung)	GI50 (SF-295 CNS)	TGI (SF-295 CNS)	GI50 (SN12C renal)	TGI (SN12C renal)	GI50 (NCI-H522 lung)	TGI (NCI-H522 lung)	GI50 (TK-10 renal)	TGI (TK-10 renal)	GI50 (SK-MEL-5 melanoma)	TGI (SK-MEL-5 melanoma)	GI50 (OVCAR-3 ovarian)	TGI (OVCAR-3 ovarian)
O=C(CC12CC3CC(CC(C3)C1)C2)NCCOCCOCCOCCNC(=O)c1cc2c(o1)C(=O)c1ccccc1C2=O	1.51 µM	3.12 µM	1.43 µM	3.31 µM	1.67 µM	8.76 µM	0.398 µM	1.44 µM	1.48 µM	2.85 µM	1.03 µM	2.26 µM	1.54 µM	3.51 µM	3.14 µM	5.78 µM	0.181 µM	0.343 µM	0.395 µM	1.79 µM
CCN(CC)CCNC(=O)c1nn(C)c(=S)[nH]c1=S		> 100 µM		> 100 µM		> 100 µM		> 100 µM		> 100 µM		> 100 µM		> 100 µM		> 100 µM		> 100 µM		> 100 µM
COc1ccc(C(=O)OC2C=COC(C)C2OC(=O)c2ccc(OC)cc2)cc1 (stereo not given)		> 100 µM		33 µM		61.9 µM		> 100 µM		> 100 µM		> 64.5 µM		30.6 µM		> 100 µM		32.1 µM		32.3 µM
COc1cc2c(Oc3ccc4[nH]c(C)cc4c3F)ccnc2cc1OCC1(N)CC1	2.05 µM	12.5 µM	0.854 µM	13.5 µM	0.395 µM	4.31 µM	0.908 µM	6.84 µM	1.07 µM	3.92 µM	1.78 µM	7.56 µM	1.27 µM	3.46 µM	7.89 µM	26.2 µM	0.967 µM	2.24 µM	0.809 µM	24.7 µM
CC1(C)CC(n2cnc(-c3ccc(F)cc3)c2-c2ccnc(N)n2)CC(C)(C)N1	10.3 µM	> 25 µM	17.7 µM	> 25 µM	> 19.3 µM	> 25 µM	11.9 µM	> 25 µM	> 25 µM	> 25 µM	17.9 µM	> 25 µM	17.6 µM	> 25 µM	16.1 µM	> 25 µM	> 16.2 µM	> 25 µM	> 25 µM	> 25 µM
c1ccc2c(c1)-c1ccccc1C2N1CC2CCC(CC2)C1		53.4 µM		40 µM		50.6 µM		52.2 µM		38.1 µM		55.6 µM		28.5 µM		> 100 µM		32.6 µM		40.5 µM
O=c1[nH]ccc2nc(N3CCC(O)CC3)nc(Nc3cccc(C(F)(F)F)c3)c12	0.702 µM	84.7 µM	0.543 µM	31.6 µM	0.707 µM	26.9 µM	1.62 µM	15 µM	2.94 µM	7.85 µM	4.07 µM	> 100 µM	2.36 µM	10.1 µM	5.98 µM	44.9 µM	1.23 µM	2.5 µM	1.34 µM	3.98 µM
